Reference: patent US9155714B2, “Compositions comprising an aromatic alcohol and a TRPV-1 antagonist, and uses thereof” (JOHNSON & JOHNSON CONSUMER INC., priority 2013, dated 2015)
“And” between values parts separate entries of the source, which are not always exact repeats. Equal values may be shown once.

Experiments:
Assay type in all cases: cell-based
[1] = target: T1, human vanilloid receptor-1 (TRPV-1) (Homo sapiens, UniProt Q8NER1); assay: Calcium Flux Test, inhibition of phenoxyethanol-induced calcium flux
T1 construct: host or cells: HEK293
Description: (§1) The Calcium Flux Test is performed in the following manner: Recombinant HEK293 cells expressing human vanilloid receptor-1 (TRPV-1; accession number AF196175, EMD Millipore, Billerica, Mass.) are grown in D-MEM/F-12 media (Life Technologies, Grand Island, N.Y.) supplemented with 10% fetal bovine serum, 1% non essential amino acids and 400 μg/mL Geneticin (Gibco, Life Technologies). Cells are plated at a concentration of 15,000 cells per well on poly-D-lysine-coated 384 well plates and incubated overnight at 5% CO2 and 37° C. After incubation, culture media is removed from the wells and replaced with 50 μL per well of Fluo-8 No Wash dye solution (#36315, AAT Bioquest, Sunnyvale, Calif.). The Fluo-8 dye solution is prepared by mixing 20 uL of Fluo-8 NW with 30 mL of 0.33× Pluronic® F127 Plus (BASF of Ludwigshafen, Germany) in assay buffer (1×HBSS+2% of HEPES). Fluo-8 dye is incubated for 30 minutes at room temperature. Intracellular calcium (Ca^2+) flux is monitored upon exposure to aromatic alcohol in DMSO vehicle by measuring fluorescence intensity at Ex/Em 490/525 on a Functional Drug Screening System (FDSS; Hamamatsu, […]). Measurements are taken every second for a period of 4 minutes. […] Statistical differences are obtained using One Way ANOVA with Tukey Post-hoc test; statistical significance is defined as P≦0.05.
(§2) The Maximum RFU obtained with a given concentration of aromatic alcohol is compared with the Maximum RFU obtained using the same concentration of aromatic alcohol but pretreated with the TRPV-1 antagonist for 5 minutes after dye incubation. Percent inhibition achieved with the TRPV-1 antagonist is calculated as: 100*((Maximum RFU of aromatic alcohol−Maximum RFU of aromatic alcohol pretreated with TRPV-1 antagonist)/Maximum RFU of aromatic alcohol).
(§3) Capsazepine and AMG9810 were tested for activity as TRPV-1 antagonists using the Calcium Flux Test using two different concentrations of phenoxyethanol in DMSO. They were also tested using the Calcium Flux Test in which phenoxyethanol was replaced with capsaicin. […]

[2] = target: T1, human vanilloid receptor-1 (TRPV-1); assay: Calcium Flux Test, phenoxyethanol replaced with capsaicin (capsaicin-induced calcium flux)
Description: as §1, §2, §3

[3] = target: T1, human vanilloid receptor-1 (TRPV-1); assay: Calcium Flux Test, inhibition of benzyl alcohol-induced calcium flux; settings: 10 uM capsazepine
Description: as §1, §2
Capsazepine was tested for activity as a TRPV-1 antagonist with different concentrations of benzyl alcohol in DMSO as described in Example 2. […]

[4] = target: T1, human vanilloid receptor-1 (TRPV-1); assay: Calcium Flux Test, inhibition of phenethyl alcohol-induced calcium flux; settings: 10 uM capsazepine; for inhibition at 10 µM: read-out: (column without head; percent inhibition)
Description: as §1, §2
Capsazepine was tested for activity as a TRPV-1 antagonist with different concentrations of phenethyl alcohol in DMSO as described in Example 2. […]

[5] = capsazepine 0.6104 nM, phenoxyethanol 2 mM
[6] = capsazepine 0.6104 nM, phenoxyethanol 3 mM
[7] = capsazepine 2 nM, phenoxyethanol 2 mM
[8] = capsazepine 10 nM, phenoxyethanol 2 mM
[9] = capsazepine 10 nM, phenoxyethanol 3 mM
[10] = capsazepine 39 nM, phenoxyethanol 2 mM
[11] = capsazepine 39 nM, phenoxyethanol 3 mM
[12] = capsazepine 156 nM, phenoxyethanol 2 mM
[13] = capsazepine 156 nM, phenoxyethanol 3 mM
[14] = capsazepine 625 nM, phenoxyethanol 2 mM
[15] = capsazepine 625 nM, phenoxyethanol 3 mM
[16] = capsazepine 2500 nM, phenoxyethanol 2 mM
[17] = capsazepine 2500 nM, phenoxyethanol 3 mM
[18] = capsazepine 10000 nM, phenoxyethanol 2 mM
[19] = capsazepine 10000 nM, phenoxyethanol 3 mM
[20] = capsazepine 2 nM, capsaicin 300 nM
[21] = capsazepine 10 nM, capsaicin 100 nM
[22] = capsazepine 10 nM, capsaicin 300 nM
[23] = capsazepine 39 nM, capsaicin 100 nM
[24] = capsazepine 39 nM, capsaicin 300 nM
[25] = capsazepine 156 nM, capsaicin 100 nM
[26] = capsazepine 156 nM, capsaicin 300 nM
[27] = capsazepine 625 nM, capsaicin 100 nM
[28] = capsazepine 625 nM, capsaicin 300 nM
[29] = capsazepine 2500 nM, capsaicin 100 nM
[30] = capsazepine 2500 nM, capsaicin 300 nM
[31] = capsazepine 10000 nM, capsaicin 100 nM
[32] = capsazepine 10000 nM, capsaicin 300 nM

T1 sequence (Q8NER1 whole entry): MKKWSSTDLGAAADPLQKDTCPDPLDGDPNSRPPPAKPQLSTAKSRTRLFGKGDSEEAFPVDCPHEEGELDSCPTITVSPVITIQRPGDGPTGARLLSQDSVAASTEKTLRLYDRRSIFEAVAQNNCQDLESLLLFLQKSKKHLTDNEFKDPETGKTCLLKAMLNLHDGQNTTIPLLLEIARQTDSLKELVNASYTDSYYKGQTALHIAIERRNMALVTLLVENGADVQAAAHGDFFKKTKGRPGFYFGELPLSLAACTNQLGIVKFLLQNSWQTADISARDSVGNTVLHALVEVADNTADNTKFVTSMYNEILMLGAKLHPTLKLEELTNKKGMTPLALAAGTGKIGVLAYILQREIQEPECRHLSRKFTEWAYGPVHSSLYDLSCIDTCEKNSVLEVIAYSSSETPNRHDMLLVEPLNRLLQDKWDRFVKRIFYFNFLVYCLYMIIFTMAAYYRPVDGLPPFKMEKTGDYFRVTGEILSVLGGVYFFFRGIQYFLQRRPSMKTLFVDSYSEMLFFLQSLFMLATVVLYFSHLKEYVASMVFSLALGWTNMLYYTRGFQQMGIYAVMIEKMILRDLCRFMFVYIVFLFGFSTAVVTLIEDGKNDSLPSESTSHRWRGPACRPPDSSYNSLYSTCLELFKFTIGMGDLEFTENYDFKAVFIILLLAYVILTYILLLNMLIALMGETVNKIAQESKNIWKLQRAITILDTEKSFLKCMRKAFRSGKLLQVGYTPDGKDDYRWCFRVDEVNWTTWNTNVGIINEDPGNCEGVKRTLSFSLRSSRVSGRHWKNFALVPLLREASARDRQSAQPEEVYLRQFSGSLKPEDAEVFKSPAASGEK

Oc1cc2c(cc1O)CN(C(=S)NCCc1ccc(Cl)cc1)CCC2 [Capsazepine, capsazepine]
Maximum RFU (mean ± SD) ([1]; capsazepine 0.1526 nM, phenoxyethanol 2 mM): 319.33 ± 77.43 RFU
Maximum RFU (mean ± SD) ([1]; capsazepine 0.1526 nM, phenoxyethanol 3 mM): 508.45 ± 81.79 RFU
Maximum RFU (mean ± SD) [1, 5]: 210.03 ± 46.34 RFU
inhibition at 0.0006104 µM [1, 5]: 26.8%
Maximum RFU (mean ± SD) [1, 6]: 351.36 ± 32.21 RFU
inhibition at 0.0006104 µM [1, 6]: 20.5%
Maximum RFU (mean ± SD) [1, 7]: 236.10 ± 8.91 RFU
inhibition at 0.002 µM [1, 7]: 17.7%
Maximum RFU (mean ± SD) ([1]; capsazepine 2 nM, phenoxyethanol 3 mM): 486.75 ± 153.02 RFU
Maximum RFU (mean ± SD) [1, 8]: 154.95 ± 19.56 RFU
inhibition at 0.01 µM [1, 8]: 46%
Maximum RFU (mean ± SD) [1, 9]: 340.96 ± 12.96 RFU
inhibition at 0.01 µM [1, 9]: 22.8%
Maximum RFU (mean ± SD) [1, 10]: 75.06 ± 6.64 RFU
inhibition at 0.039 µM [1, 10]: 73.8%
Maximum RFU (mean ± SD) [1, 11]: 176.52 ± 75.37 RFU
inhibition at 0.039 µM [1, 11]: 60%
Maximum RFU (mean ± SD) [1, 12]: 87.54 ± 8.38 RFU
inhibition at 0.156 µM [1, 12]: 69.5%
Maximum RFU (mean ± SD) [1, 13]: 101.59 ± 2.44 RFU
inhibition at 0.156 µM [1, 13]: 77%
Maximum RFU (mean ± SD) [1, 14]: 57.76 ± 2.15 RFU
inhibition at 0.625 µM [1, 14]: 79.9%
Maximum RFU (mean ± SD) [1, 15]: 75.71 ± 3.39 RFU
inhibition at 0.625 µM [1, 15]: 82.9%
Maximum RFU (mean ± SD) [1, 16]: 84.79 ± 2.68 RFU
inhibition at 2.5 µM [1, 16]: 70.5%
Maximum RFU (mean ± SD) [1, 17]: 99.71 ± 6.08 RFU
inhibition at 2.5 µM [1, 17]: 77.4%
Maximum RFU (mean ± SD) [1, 18]: 79.39 ± 2.79 RFU
inhibition at 10 µM [1, 18]: 72.3%
Maximum RFU (mean ± SD) [1, 19]: 106.49 ± 4.15 RFU
inhibition at 10 µM [1, 19]: 75.9%
Maximum RFU (mean ± SD) ([2]; capsazepine 2 nM, capsaicin 100 nM): 665.83 ± 90.25 RFU
Maximum RFU (mean ± SD) [2, 20]: 850.93 ± 28.65 RFU
inhibition at 0.002 µM [2, 20]: 1.16%
Maximum RFU (mean ± SD) [2, 21]: 461.29 ± 221.27 RFU
inhibition at 0.01 µM [2, 21]: 28.7%
Maximum RFU (mean ± SD) [2, 22]: 771.64 ± 25.92 RFU
inhibition at 0.01 µM [2, 22]: 10.4%
Maximum RFU (mean ± SD) [2, 23]: 187.95 ± 177.88 RFU
inhibition at 0.039 µM [2, 23]: 71%
Maximum RFU (mean ± SD) [2, 24]: 557.38 ± 79.48 RFU
inhibition at 0.039 µM [2, 24]: 35.3%
Maximum RFU (mean ± SD) [2, 25]: 29.36 ± 6.46 RFU
inhibition at 0.156 µM [2, 25]: 95.5%
Maximum RFU (mean ± SD) [2, 26]: 51.20 ± 14.34 RFU
inhibition at 0.156 µM [2, 26]: 94%
Maximum RFU (mean ± SD) [2, 27]: 24.39 ± 5.19 RFU
inhibition at 0.625 µM [2, 27]: 96.2%
Maximum RFU (mean ± SD) [2, 28]: 28.36 ± 3.16 RFU
inhibition at 0.625 µM [2, 28]: 96.7%
Maximum RFU (mean ± SD) [2, 29]: 27.61 ± 4.95 RFU
inhibition at 2.5 µM [2, 29]: 95.7%
Maximum RFU (mean ± SD) [2, 30]: 31.08 ± 3.44 RFU
inhibition at 2.5 µM [2, 30]: 96.4%
Maximum RFU (mean ± SD) [2, 31]: 45.31 ± 14.17 RFU
inhibition at 10 µM [2, 31]: 93%
Maximum RFU (mean ± SD) [2, 32]: 58.73 ± 4.40 RFU
inhibition at 10 µM [2, 32]: 93.2%
Maximum RFU ([3]; benzyl alcohol 0 % w/v): 13.30 RFU and 18.24 ± 1.3 RFU
Maximum RFU ([3]; benzyl alcohol 0.00000199 % w/v): 11.32 RFU and 18.74 ± 2.18 RFU
Maximum RFU ([3]; benzyl alcohol 0.00000598 % w/v): 9.46 RFU and 16.77 ± 1.48 RFU
Maximum RFU ([3]; benzyl alcohol 0.0000538 % w/v): 10.90 RFU and 18.44 ± 0.07 RFU
Maximum RFU ([3]; benzyl alcohol 0.001452 % w/v): 11.63 RFU and 15.7 ± 2.1 RFU
% Inhibition ([3]; benzyl alcohol 0.004357 % w/v): 72.51%
Maximum RFU ([3]; benzyl alcohol 0.004357 % w/v): 8.14 RFU and 15.33 ± 1 RFU
inhibition at 10 µM ([3]; benzyl alcohol 0.004357 % w/v): 74.2%
% Inhibition ([3]; benzyl alcohol 0.013072 % w/v): 82.58%
inhibition at 10 µM ([3]; benzyl alcohol 0.013072 % w/v): 88.8%
% Inhibition ([3]; benzyl alcohol 0.04 % w/v): 93.23%
Maximum RFU ([3]; benzyl alcohol 0.04 % w/v): 18.82 RFU and 28.72 ± 1.5 RFU
inhibition at 10 µM ([3]; benzyl alcohol 0.04 % w/v): 95.4%
Maximum RFU ([3]; benzyl alcohol 6.64E−07 % w/v): 11.79 RFU and 18.24 ± 2.53 RFU
Maximum RFU ([4]; phenethyl alcohol 0 % w/v): 13.44 RFU and 17.46 ± 0.4 RFU
Maximum RFU ([4]; phenethyl alcohol 0.000002 % w/v): 12.76 RFU and 18.03 ± 3.35 RFU
Maximum RFU ([4]; phenethyl alcohol 0.000006 % w/v): 13.70 RFU and 18 ± 0.75 RFU
Maximum RFU ([4]; phenethyl alcohol 0.000018 % w/v): 13.60 RFU and 18.18 ± 0.59 RFU
Maximum RFU ([4]; phenethyl alcohol 0.00016 % w/v): 11.64 RFU and 19.48 ± 0.51 RFU
Maximum RFU ([4]; phenethyl alcohol 0.00048 % w/v): 11.71 RFU and 20.58 ± 0.6 RFU
Maximum RFU ([4]; phenethyl alcohol 0.0015 % w/v): 11.68 RFU and 18.5 ± 0.5 RFU
inhibition at 10 µM ([4]; phenethyl alcohol 0.0015 % w/v): 54.3%
(column without head; percent inhibition) ([4]; phenethyl alcohol 0.0044 % w/v): 56.15% and 80.22%
Maximum RFU ([4]; phenethyl alcohol 0.0044 % w/v): 11.56 RFU and 15.66 ± 0.4 RFU
(column without head; percent inhibition) ([4]; phenethyl alcohol 0.013 % w/v): 93.84%
inhibition at 10 µM ([4]; phenethyl alcohol 0.013 % w/v): 96.3%
(column without head; percent inhibition) ([4]; phenethyl alcohol 0.04 % w/v): 91.52%
Maximum RFU ([4]; phenethyl alcohol 0.04 % w/v): 26.42 RFU and 39.89 ± 5.81 RFU
inhibition at 10 µM ([4]; phenethyl alcohol 0.04 % w/v): 94%
(column without head; percent inhibition) ([4]; phenethyl alcohol 0.12 % w/v): 37.18%
Maximum RFU ([4]; phenethyl alcohol 0.12 % w/v): 345.95 RFU and 364.66 ± 13.76 RFU
inhibition at 10 µM ([4]; phenethyl alcohol 0.12 % w/v): 42.9%
